From patent US9850257B2, “Tricyclic heterocycles as BET protein inhibitors” (Incyte Corporation, priority 2013, dated 2017)
Counter-ions that a name gives are not always drawn.

Tests used:
[1] = molecular target: BRD4-BD1 (Homo sapiens (Human), UniProt O60885); assay: BRD4 AlphaScreen assay (BD1); type: binding; details: biotin-labeled tetra-acetylated histone H4 peptide, 3.8 nM BRD4-BD1, read-out: BRD4 BD-1 enzyme IC50
Protocol: (§1) BRD4-BD1 and BRD4-BD2 assays were conducted in white 384-well polystyrene plate in a final volume of 20 μL for BD1 and 40 μL for BD2. Inhibitors were first serially diluted in DMSO and added to the plate wells before the addition of other reaction components. The final concentration of DMSO in the assay was 1.25% (BD1) and 0.83% (BD2). The assays were carried out at room temperature for 75 min. in the assay buffer (50 mM HEPES, pH 7.4, 100 mM NaCl, 0.05% CHAPS, 0.01% BSA), containing 50 nM Biotin-labeled tetra-acetylated histone H4 peptide (H4Ac4), 3.8 nM (BRD4-BD1, BPS Bioscience #31040) or 20 nM (BRD4-BD2, BPS Bioscience #31041). The reaction followed by the addition of 20 μL of assay buffer supplemented with Streptavidin donor beads (PerkinElmer 6760002) and GSH Acceptor beads (PerkinElmer-AL109C) at 4 jag/mL under reduced light. After plate sealing, the plate was incubated in the dark at room temperature for 75 min. before reading on a PHERAstar FS plate reader (BMG Labtech). IC50 determination was performed by fitting the curve of percent control activity versus the log of the inhibitor concentration using the GraphPad Prism 5.0 software.

[2] = molecular target: BRD4-BD2 (Homo sapiens (Human), UniProt O60885); assay: BRD4 AlphaScreen assay (BD2); type: binding; details: biotin-labeled tetra-acetylated histone H4 peptide, 20 nM BRD4-BD2, read-out: BRD4 BD-2 enzyme IC50
Protocol: as §1

[3] = system: KMS.12.BM cell line (human myeloma); assay: KMS.12.BM cell viability assay; type: cell-based; details: 72 h, KMS.12.BM cells, 3 days, Cell Titer-GLO ATP quantitation, read-out: KMS cellular IC50
Protocol: KMS.12.BM Cell Viability Assay
KMS.12.BM cell line (human myeloma) was purchased from JCRB (Osaka, Japan) and maintained in RPMI with 10% FBS culture medium. To measure the cytotoxic activity of the compounds through ATP quantitation, the KMS. 12.BM cells are plated in the RPMI culture medium at 5000 cells/well/per 100 μL into a 96-well polystyrene clear black tissue culture plate (Greiner-bio-one through VWR, NJ), in the presence or absence of a concentration range of test compounds. After 3 days, […] Cell Titer-GLO Luminescent (Promega, Madison, Wis.) cell culture agent is added to each well for 10 minutes at room temperature to stabilize the luminescent signal. This determines the number of viable cells in culture based on quantitation of the ATP present, which signals the presence of metabolically active cells. Luminescence is measured with the Top Count 384 (Packard Bioscience through Perkin Elmer, Boston, Mass.). Compound inhibition is determined relative to cells cultured with no drug and the IC50 reported as the compound concentration required for 50% cell death.

Row | IC50 [1] | IC50 [2] | IC50 [3] | SMILES
1 | ≤ 200 nM | ≤ 200 nM | ≤ 1000 nM | Cc1noc(C)c1-c1ccc2c(=O)[nH]n3c2c1OCC3c1ccccc1 (centres unmarked) [Example 1, 9-(3,5-Dimethylisoxazol-4-yl)-3-phenyl-2,3-dihydro[1,4]oxazino[2,3,4-hi]indazol-6(5H)-one]
2 | ≤ 200 nM | ≤ 200 nM | ≤ 1000 nM | Cc1noc(C)c1-c1ccc2c(=O)n(C)n3c2c1OCC3c1ccccc1 (centres unmarked) [Example 2, 9-(3,5-Dimethylisoxazol-4-yl)-5-methyl-3-phenyl-2,3-dihydro[1,4]oxazino[2,3,4-hi]indazol-6(5H)-one]
3 | ≤ 200 nM | ≤ 200 nM | ≤ 1000 nM | COc1nn2c3c(c(-c4c(C)noc4C)ccc13)OCC2c1ccccc1 (centres unmarked) [Example 3, 9-(3,5-Dimethylisoxazol-4-yl)-6-methoxy-3-phenyl-2,3-dihydro[1,4]oxazino[2,3,4-hi]indazole]
4 | ≤ 200 nM | ≤ 200 nM | ≤ 1000 nM | Cc1noc(C)c1-c1ccc2cnn3c2c1OCC3c1ccccc1 (centres unmarked) [Example 4, 9-(3,5-Dimethylisoxazol-4-yl)-3-phenyl-2,3-dihydro[1,4]oxazino[2,3,4-hi]indazole]
5 | 200 to 1000 nM | ≤ 200 nM | ≤ 1000 nM | Cc1noc(C)c1-c1ccc2c(=O)[nH]n3c2c1OCC3c1ccccn1 (centres unmarked) [Example 5, 9-(3,5-Dimethylisoxazol-4-yl)-3-pyridin-2-yl-2,3-dihydro[1,4]oxazino[2,3,4-hi]indazol-6(5H)-one]
6 | ≤ 200 nM | ≤ 200 nM | ≤ 1000 nM | Cc1noc(C)c1-c1ccc2c(=O)n(C)n3c2c1OCC3c1ccccn1 (centres unmarked) [Example 6, 9-(3,5-Dimethylisoxazol-4-yl)-5-methyl-3-pyridin-2-yl-2,3-dihydro[1,4]oxazino[2,3,4-hi]indazol-6(5H)-one]
7 | ≤ 200 nM | ≤ 200 nM | ≤ 1000 nM | COc1nn2c3c(c(-c4c(C)noc4C)ccc13)OCC2c1ccccn1 (centres unmarked) [Example 7, 9-(3,5-Dimethylisoxazol-4-yl)-6-methoxy-3-pyridin-2-yl-2,3-dihydro[1,4]oxazino[2,3,4-hi]indazole]
8 | ≤ 200 nM | ≤ 200 nM | ≤ 1000 nM | Cc1noc(C)c1-c1ccc2cnn3c2c1OCC3c1ccccn1 (centres unmarked) [Example 8, 9-(3,5-Dimethylisoxazol-4-yl)-3-pyridin-2-yl-2,3-dihydro[1,4]oxazino[2,3,4-hi]indazole trifluoroacetate]
9 | 200 to 1000 nM | ≤ 200 nM | 1000 to 10000 nM | Cc1noc(C)c1-c1cc(Br)c2cnn3c2c1OCC3c1ccccc1 (centres unmarked) [Example 9, 7-Bromo-9-(3,5-dimethylisoxazol-4-yl)-3-phenyl-2,3-dihydro[1,4]oxazino[2,3,4-hi]indazole]
10 | 200 to 1000 nM | ≤ 200 nM | 1000 to 10000 nM | Cc1noc(C)c1-c1ccc2c(=O)[nH]n3c2c1OCC3c1cccnc1 (centres unmarked) [Example 10, 9-(3,5-Dimethylisoxazol-4-yl)-3-pyridin-3-yl-2,3-dihydro[1,4]oxazino[2,3,4-hi]indazol-6(5H)-one]
11 | ≤ 200 nM | ≤ 200 nM | ≤ 1000 nM | Cc1noc(C)c1-c1ccc2c(=O)n(C)n3c2c1OCC3c1cccnc1 (centres unmarked) [Example 11, 9-(3,5-Dimethylisoxazol-4-yl)-5-methyl-3-pyridin-3-yl-2,3-dihydro[1,4]oxazino[2,3,4-hi]indazol-6(5H)-one]
12 | ≤ 200 nM | ≤ 200 nM | ≤ 1000 nM | COc1nn2c3c(c(-c4c(C)noc4C)ccc13)OCC2c1cccnc1 (centres unmarked) [Example 12, 9-(3,5-Dimethylisoxazol-4-yl)-6-methoxy-3-pyridin-3-yl-2,3-dihydro[1,4]oxazino[2,3,4-hi]indazole]
13 | > 1000 nM | 200 to 1000 nM | – | Cc1noc(C)c1-c1cc(F)c2nnn3c2c1OCC3c1cccnc1 (centres unmarked) [Example 13, 7-(3,5-Dimethylisoxazol-4-yl)-9-fluoro-4-pyridin-3-yl-4,5-dihydro[1,2,3]triazolo[1,5,4-de][1,4]benzoxazine trifluoroacetate]
